{"source": "patent US20240075050A1", "about": "“Methods and Compositions for Treating Leucine Rich Repeat Kinase 2 (LRRK2)-Associated Disorder or Condition” (University of Connecticut, priority 2022, published 2024)", "system": "CD68", "assay": "LPS-induced neuroinflammation in mice, CD68 levels", "type": "in vivo, mouse", "settings": "21 days; for LPS-induced CD68 levels in SNpc: AICAr 2.4 μg/day/animal, immunostaining", "description": "FIGS. 9A-9F depict that AICAr rescues LPS-induced DA neurodegeneration and inflammation in mice, which acts through LRRK2. FIG. 9A depicts representative images of DAneuron staining. WT and LRRK-KO mice were injected with 1 ul LPS (5 ug/animal) or phosphate buffered saline (PBS) into the substantia nigra pars compacta (SNpc) and administrated with AICAr (2.4 μg/day/animal) or saline to same stereotaxic coordinates using osmotic pumps. After 21 days of injection, DA neurons were stained by anti-tyrosine hydroxylase (TH) antibody. Scale bars, […]. FIG. 9B depicts quantification of TH positive neurons in substantia nigra pars compacta (SNpc) using an unbiased stereological method with stereo investigator software from 7-8 animals per group. FIG. 9C depicts quantification of Niss1-positive neurons in SNpc using an unbiased stereological method with stereo investigator software from 7-8 animals per group. FIG. 9D depicts the CD68 levels in SNpc tissues near the needle sites analyzed by immunostaining. Scale bars, 100 μm. FIG. 9E depicts the CD68 levels in WT and LRRK-KO mice injected with 1 μl LPS (5 μg/animal) or PBS into striatum followed by administration of AICAr (2.4 μg/day/animal) or saline to same stereotaxic coordinates using osmotic pumps. After 21 days of injection, LRRK2 and CD68 expression in striatal tissues near the needle sites was analyzed by Western blot. FIG. 9F depicts quantification of images from (FIG. 9E) using ImageJ software, n=3 animals per group. Data information: Data are mean±SEM. ***p<0.001, ****p<0.0001 by one-way ANOVA followed by a Tukey's post hoc test. ns: not statistically significant.\nStereotaxic intracranial injection. […]\nImmunohistochemistry. […] After antigen retrieval with 10 mM sodium citrate (pH 6.0) and 0.05% Tween-20 at 37° C. for 30 minutes, brain sections were washed in PBS for three times, permeabilized with 0.3% Triton X-100 in PBS, blocked with 10% goat serum in PBS, incubated with anti-tyrosine hydroxylase (TH) antibody overnight at 4° C., and then detected with Biotin-SP goat anti-rabbit IgG antibody at room temperature for 2 hours. […]"}
{"smiles": "NC(=O)c1ncn([C@@H]2O[C@H](CO)[C@@H](O)[C@H]2O)c1N", "note": "[AICAr, 5-aminoimidazole-4-carboxamide riboside]", "values": [{"measurement": "LPS-induced CD68 levels in SNpc", "setting": "LRRK2 KO mice", "value": "did not significantly rescue"}, {"measurement": "CD68 levels stimulated by LPS in striatum", "setting": "WT mice, AICAr 2.4 μg/day/animal into striatum, Western blot", "value": "significantly reduced"}, {"measurement": "LPS-induced CD68 levels in SNpc", "setting": "WT mice", "value": "significantly reduced"}]}
